Results taken from patent US20100022541A1, “Chemical inhibitors of bacterial heptose synthesis, methods for their preparation and biological applications of said inhibitors” (priority 2006, published 2010).

Target: T1, RfaE (Escherichia coli, UniProt P76658)
T1 construct: made in house; host or cells: E. coli
Assay: Inhibition of the enzymatic activity of RfaE (HTS luminescent or fluorescent biochemical assay)
Parameters: species or system E. coli
Conditions: inhibitor tested at 6 to 10 concentrations; 30 min pre-incubation at room temperature
Description: According to another object, the invention also relates to a method for assessing RfaE enzymatic activity. • Said method comprises • pre-incubating at room temperature • DMSO or inhibitor to be tested dissolved in DMSO and RfaE in an assay buffer • and either • adding a reaction mixture composed of RfaE, β-heptose-7-phosphate, ATP, in the assay buffer and incubating at room temperature • adding a revelation mixture composed of luciferase, D-luciferin and N-acetylcysteamine • measuring the luminescence intensity and converting into inhibition % to further calculate the IC50 values; • or • adding a reaction mixture composed of RfaE, β-heptose-7-phosphate ATP, pyruvate kinase, phosphoenolpyruvate, lactate dehydrogenase and NADH in said assay buffer, • measuring the fluorescence intensity of NADH kinetically and deriving inhibition % from fitted initial velocities, to further calculate the IC50 values.
Inhibition of the Enzymatic Activity of RfaE
RfaE is a kinase belonging to the ribokinase family. It catalyses an essential step of the biosynthesis of L-ADP-Heptose, namely the phosphorylation of β-heptose-7-phosphate (H7P) into β-heptose-1,7-bisphosphate (H17P). RfaE assays as described in the literature are essentially based on direct HLPC detection of the substrates H7P and ATP, and of the products H17P and ADP, raising obvious limitations for HTS applications. The assays described below are based either on luminescent ATP detection, or on fluorescent ADP detection. They are easily amenable to miniaturized formats and fast readouts as required by HTS.
The assay buffer “AB” contains 50 mM Hepes pH7.5, 1 mM MnCl2, 25 mM KCl, 0.012% Triton-X100 and 1 mM DTT. The following components are added in a white polystyrene Costar plate up to a final volume of 31 μL: 3 μL DMSO, or inhibitor dissolved in DMSO and 28 μL RfaE in AB. After 30 min of pre-incubation at room temperature, 29 μL of Substrates mix in AB are added in each well to a final volume of 60 μL. This reaction mixture is then composed of 3 nM RfaE (produced in house from E. coli), 0.2 μM β-heptose-7-phosphate (in house synthesis) and 0.2 μM ATP (Sigma) in assay buffer. After 40 min of incubation at room temperature, 200 μL of the revelation mix are added to a final volume of 260 μL, including the following constituents at the respective final concentrations: 2 nM luciferase (Sigma), 30 μM D-luciferin (Sigma), 100 μM N-acetylcysteamine (Aldrich). Luminescence intensity is immediately measured on an Analyst-HT (Molecular Devices) and converted into inhibition percentages. For IC50 determinations, the inhibitor is tested at 6 to 10 different concentrations, and the related inhibitions are fitted to a classical langmuir equilibrium model using XLFIT (IDBS).
The assay buffer “AB” contains 50 mM Hepes pH7.5, 1 mM MnCl2, 25 mM KCl, 0.012% Triton-X100 and 1 mM DTT. The following components are added in a black polystyrene Costar plate up to a final volume of 50 μL: 5 μL DMSO, or inhibitor dissolved in DMSO and 45 μL RfaE in AB. After 30 min of pre-incubation at room temperature, 50 μL of Substrates-revelation mix in AB are added in each well to a final volume of 100 μL. This reaction mixture is then composed of 66 μM RfaE (produced in house from E. coli), 1 μM β-heptose-7-phosphate (in house synthesis), 50 μM ATP (Sigma), 5 u/mL Pyruvate Kinase (Sigma), 50 μM phosphoenolpyruvate (Sigma), 5 u/mL Lactate dehydrogenase (Sigma) and 2.5 μM NADH (Sigma) in assay buffer. Fluorescence intensity of NADH (λex=360 nm, λem=520 nm) is immediately measured kinetically by a Fluostar Optima (BMG). Inhibition percentages are derived from fitted initial velocities. For IC50 determinations, the inhibitor is tested at 6 to 10 different concentrations, and the related inhibitions are fitted to a classical langmuir equilibrium model using XLFIT (IDBS).

T1 sequence (P76658 whole entry): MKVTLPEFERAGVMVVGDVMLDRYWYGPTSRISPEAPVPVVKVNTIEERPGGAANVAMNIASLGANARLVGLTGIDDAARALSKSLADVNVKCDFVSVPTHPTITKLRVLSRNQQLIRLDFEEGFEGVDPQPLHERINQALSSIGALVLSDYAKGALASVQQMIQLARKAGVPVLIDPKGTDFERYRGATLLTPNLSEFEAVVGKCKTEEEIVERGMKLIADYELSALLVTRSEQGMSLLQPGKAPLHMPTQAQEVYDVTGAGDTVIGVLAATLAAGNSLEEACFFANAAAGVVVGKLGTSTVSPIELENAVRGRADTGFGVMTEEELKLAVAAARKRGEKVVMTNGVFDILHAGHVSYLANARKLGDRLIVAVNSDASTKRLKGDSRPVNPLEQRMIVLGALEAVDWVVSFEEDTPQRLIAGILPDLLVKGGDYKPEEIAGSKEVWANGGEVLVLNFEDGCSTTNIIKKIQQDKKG

Compound | IC50
Cc1nc(-c2ccc(Cl)cc2)oc1C(=O)N(CC(=O)O)Cc1ccccn1 [V, [{[2-(4-chlorophenyl)-4-methyl-1,3-oxazol-5-yl]carbonyl}(pyridin-2-ylmethyl)amino]acetic acid] | 54 µM
Cc1oc(-c2ccccc2C(F)(F)F)nc1C(=O)N(CC(=O)O)Cc1ccccn1 [XV, [({5-methyl-2-[2-(trifluoromethyl)phenyl]-1,3-oxazol-4-yl}carbonyl)(pyridin-2-ylmethyl)amino]acetic Acid] | 121 µM
Cc1nc(-c2ccc3ccccc3c2)sc1C(=O)N(CC(=O)O)Cc1nc2ccccc2s1 [XLI, ((1,3-benzothiazol-2-ylmethyl){[4-methyl-2-(2-naphthyl)-1,3-thiazol-5-yl]carbonyl}amino)acetic Acid] | 0.48 µM
O=C(O)CN(Cc1ccccn1)C(=O)c1ccc(-c2ccccc2)o1 [VII, [(5-phenyl-2-furoyl)(pyridin-2-ylmethyl)amino]acetic Acid] | 100 µM
Cc1nc(-c2ccccc2)oc1C(=O)N(CC(=O)O)Cc1ccccn1 [VI, [[(4-methyl-2-phenyl-1,3-oxazol-5-yl)carbonyl](pyridin-2-ylmethyl)amino]acetic Acid] | 71 µM
COc1cccc(-c2nc(C)c(C(=O)N(CC(=O)O)C(C)c3ccccn3)o2)c1 (stereo not drawn) [XXXV, [{[2-(3-methoxyphenyl)-4-methyl-1,3-oxazol-5-yl]carbonyl}(1-pyridin-2-ylethyl)amino]acetic Acid] | 19.2 µM
COc1cccc(-c2nc(C(=O)N(CC(=O)O)Cc3ccccn3)c(C)o2)c1 [Example XX, [{[2-(3-methoxyphenyl)-5-methyl-1,3-oxazol-4-yl]carbonyl}(pyridin-2-ylmethyl)amino]acetic Acid] | 15 µM
COc1cccc(-c2nc(C(=O)N(CC(=O)O)Cc3ccc4ccccc4n3)c(C)o2)c1 [XXXIV, [{[2-(3-methoxyphenyl)-5-methyl-1,3-oxazol-4-yl]carbonyl}(quinolin-2-ylmethyl)amino]acetic Acid] | 12 µM
Cc1nc(-c2ccc3[nH]ccc3c2)sc1C(=O)N(CC(=O)O)Cc1nc2ccccc2s1 [XXXVIII, ((1,3-benzothiazol-2-ylmethyl){[2-(1H-indol-5-yl)-4-methyl-1,3-thiazol-5-yl]carbonyl}amino)acetic Acid] | 0.33 µM
Cc1oc(-c2ccc(C(F)(F)F)cc2)nc1C(=O)N(CC(=O)O)Cc1ccccn1 [XVI, [({5-methyl-2-[4-(trifluoromethyl)phenyl]-1,3-oxazol-4-yl}carbonyl)(pyridin-2-ylmethyl)amino]acetic Acid] | 142 µM
Cc1nc(-c2ccc(N)c([N+](=O)[O-])c2)sc1C(=O)N(CC(=O)O)Cc1ccccn1 [XXXVII, [{[2-(4-amino-3-nitrophenyl)-4-methyl-1,3-thiazol-5-yl]carbonyl}(pyridin-2-ylmethyl)amino]acetic Acid] | 12.9 µM
O=C(O)CN(Cc1ccccn1)C(=O)c1nc(-c2ccccc2)oc1CN1CCOCC1 [II, [{[5-(morpholin-4-ylmethyl)-2-phenyl-1,3-oxazol-4-yl]carbonyl}(pyridin-2-ylmethyl)amino]acetic Acid] | 197 µM
Cc1oc(-c2ccccc2N)nc1C(=O)N(CC(=O)O)Cc1ccccn1 [XXVI, [{[2-(2-aminophenyl)-5-methyl-1,3-oxazol-4-yl]carbonyl}(pyridin-2-ylmethyl)amino]acetic Acid] | 31 µM
COc1ccc(-c2nc(C(=O)N(CC(=O)O)Cc3ccccn3)c(C)o2)cc1 [Example XXI, [{[2-(4-methoxyphenyl)-5-methyl-1,3-oxazol-4-yl]carbonyl}(pyridin-2-ylmethyl)amino]acetic Acid] | 75 µM
Cc1nc(-c2cccc([N+](=O)[O-])c2)sc1C(=O)N(CC(=O)O)Cc1nc2ccccc2s1 [XXXIX, ((1,3-benzothiazol-2-ylmethyl){[4-methyl-2-(3-nitrophenyl)-1,3-thiazol-5-yl]carbonyl}amino)acetic Acid] | 0.5 µM
CC(=O)c1cccc(-c2nc(C)c(C(=O)N(CC(=O)O)Cc3ccccn3)s2)c1 [XXXVI, [{[2-(3-acetylphenyl)-4-methyl-1,3-thiazol-5-yl]carbonyl}(pyridin-2-ylmethyl)amino]acetic Acid] | 216 µM
Cc1oc(-c2ccc(N)cc2)nc1C(=O)N(CC(=O)O)Cc1ccccn1 [XXVII, [{[2-(4-aminophenyl)-5-methyl-1,3-oxazol-4-yl]carbonyl}(pyridin-2-ylmethyl)amino]acetic Acid] | 22 µM
COc1cccc(-c2nc(C)c(C(=O)N(CC(=O)O)Cc3ccccn3)o2)c1 [III, [{[2-(3-methoxyphenyl)-4-methyl-1,3-oxazol-5-yl]carbonyl}(pyridin-2-ylmethyl)amino]acetic Acid] | 17 µM
Cc1oc(-c2cccc(O)c2)nc1C(=O)N(CC(=O)O)Cc1ccccn1 [XXV, [{[2-(3-hydroxyphenyl)-5-methyl-1,3-oxazol-4-yl]carbonyl}(pyridin-2-ylmethyl)amino]acetic Acid] | 50 µM
Cc1oc(-c2ccccc2[N+](=O)[O-])nc1C(=O)N(CC(=O)O)Cc1ccccn1 [Example XXII, [{[5-methyl-2-(2-nitrophenyl)-1,3-oxazol-4-yl]carbonyl}(pyridin-2-ylmethyl)amino]acetic Acid] | 141 µM
Cn1nc(-c2ccccc2)cc1C(=O)N(CC(=O)O)Cc1ccccn1 [VIII, [[(1-methyl-3-phenyl-1H-pyrazol-5-yl)carbonyl](pyridin-2-ylmethyl)amino]acetic Acid] | 57 µM
Cc1oc(-c2cccc(Br)c2)nc1C(=O)N(CC(=O)O)Cc1ccccn1 [XVIII, [{[2-(3-bromophenyl)-5-methyl-1,3-oxazol-4-yl]carbonyl}(pyridin-2-ylmethyl)amino]acetic Acid] | 10 µM
Cc1nn(-c2ccccc2)nc1C(=O)N(CC(=O)O)Cc1ccccn1 [XI, [[(5-methyl-2-phenyl-2H-1,2,3-triazol-4-yl)carbonyl](pyridin-2-ylmethyl)amino]acetic Acid] | 48 µM
Cc1oc(-c2ccccc2Br)nc1C(=O)N(CC(=O)O)Cc1ccccn1 [XIX, [{[2-(2-bromophenyl)-5-methyl-1,3-oxazol-4-yl]carbonyl}(pyridin-2-ylmethyl)amino]acetic Acid] | 44 µM
Cc1oc(-c2ccccc2)nc1C(=O)N(CC(=O)O)Cc1nccs1 [XXXIII, [[(5-methyl-2-phenyl-1,3-oxazol-4-yl)carbonyl](1,3-thiazol-2-ylmethyl)amino]acetic Acid] | 110 µM
Cc1oc(-c2ccccc2)nc1C(=O)N(CC(=O)O)Nc1ccccn1 [XXXI, {1-[(5-methyl-2-phenyl-1,3-oxazol-4-yl)carbonyl]-2-pyridin-2-ylhydrazino}acetic Acid] | 65 µM
[{[2-(4-bromophenyl)-5-methyl-1,3-oxazol-4-yl]carbonyl}(pyridin-2-ylmethyl)amino]acetic Acid [XVII] | 27 µM
Cc1cccc(C)c1-c1nc(C)c(C(=O)N(CC(=O)O)Cc2nc3ccccc3s2)s1 [XL, ((1,3-benzothiazol-2-ylmethyl){[4-methyl-2-(2,6-dimethylphenyl)-1,3-thiazol-5-yl]carbonyl}amino)acetic Acid] | 50.5 µM
O=C(O)CN(Cc1ccccn1)C(=O)c1nc(-c2ccccc2)oc1C(F)(F)F [XIII, [{[2-phenyl-5-(trifluoromethyl)-1,3-oxazol-4-yl]carbonyl}(pyridin-2-ylmethyl)amino]acetic Acid] | 80 µM
Cc1oc(-c2ccccc2)cc1C(=O)N(CC(=O)O)Cc1ccccn1 [Example X, [(2-methyl-5-phenyl-3-furoyl)(pyridin-2-ylmethyl)amino]acetic Acid] | 42 µM
